The target of assay [1] is T1, GCase (Homo sapiens, UniProt P04062).
T1 construct: endogenous in cells; host or cells: normal human skin fibroblasts
T1 sequence (P04062 40-536): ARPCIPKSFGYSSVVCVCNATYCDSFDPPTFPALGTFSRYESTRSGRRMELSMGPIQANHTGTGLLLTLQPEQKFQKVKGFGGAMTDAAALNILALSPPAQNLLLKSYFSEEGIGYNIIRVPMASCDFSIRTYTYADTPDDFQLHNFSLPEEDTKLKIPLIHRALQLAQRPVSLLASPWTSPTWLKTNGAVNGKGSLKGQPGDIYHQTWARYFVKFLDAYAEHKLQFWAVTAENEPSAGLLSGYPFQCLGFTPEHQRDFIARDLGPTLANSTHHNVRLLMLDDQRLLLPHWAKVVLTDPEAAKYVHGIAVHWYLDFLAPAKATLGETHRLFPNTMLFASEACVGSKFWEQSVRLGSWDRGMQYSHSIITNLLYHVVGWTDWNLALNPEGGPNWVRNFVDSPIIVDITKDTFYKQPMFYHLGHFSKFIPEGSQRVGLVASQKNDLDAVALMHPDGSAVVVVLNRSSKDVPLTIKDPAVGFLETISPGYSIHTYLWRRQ
The assay can be described thus: GCase activity in cultured healthy human fibroblasts. It counts as cell-based. How it is done:
For that purpose, cells were cultured for 5 days in the absence and in the presence of various concentrations of the compounds, then lysed, and the enzyme activity was determined using 4-methylumbelliferyl β-D-glucopyranoside as substrate. Higher GCase activities in the lysate indicate that larger amounts of the protein are present and that it is functional.
Normal and Gaucher disease patients’ skin fibroblasts were cultured in Dulbecco modified Eagle’s medium (WAKO, Richmond, VA, USA) supplemented with 10% fetal bovine serum (Nichirei Biosci. Inc., Tokyo, Japan) at 37 °C in 5% CO2. For measurement of chaperone activities, fibroblasts were plated onto 35 mm dishes at 50,000 cells per dish. After 24 h incubation, the medium with the indicated concentrations of compound was applied and cells were cultured for 96 h. Then, the lysates in 0.1% Triton-X100/distilled H2O were collected from the cells and assayed for lysosomal GCase as described above. To measure the cytotoxic effect of the compounds, normal human fibroblasts were plated onto 35 mm dishes at 15,000 cells per dish and incubated overnight. Then, the medium was changed with or without compounds. After 24 h incubation, the supernatant of the cells was collected and measured by the lactate dehydrogenase assay (WAKO, Richmond, VA, USA). All the cell lines used were tested for mycoplasma contamination before conducting the chaperone and toxicity assays.

The target in assay [2] is T2, α-glucosidase maltase (yeast maltase; α-Glcase1) (Saccharomyces cerevisiae, UniProt P53341).
T2 construct: purchased
T2 sequence (P53341 whole entry): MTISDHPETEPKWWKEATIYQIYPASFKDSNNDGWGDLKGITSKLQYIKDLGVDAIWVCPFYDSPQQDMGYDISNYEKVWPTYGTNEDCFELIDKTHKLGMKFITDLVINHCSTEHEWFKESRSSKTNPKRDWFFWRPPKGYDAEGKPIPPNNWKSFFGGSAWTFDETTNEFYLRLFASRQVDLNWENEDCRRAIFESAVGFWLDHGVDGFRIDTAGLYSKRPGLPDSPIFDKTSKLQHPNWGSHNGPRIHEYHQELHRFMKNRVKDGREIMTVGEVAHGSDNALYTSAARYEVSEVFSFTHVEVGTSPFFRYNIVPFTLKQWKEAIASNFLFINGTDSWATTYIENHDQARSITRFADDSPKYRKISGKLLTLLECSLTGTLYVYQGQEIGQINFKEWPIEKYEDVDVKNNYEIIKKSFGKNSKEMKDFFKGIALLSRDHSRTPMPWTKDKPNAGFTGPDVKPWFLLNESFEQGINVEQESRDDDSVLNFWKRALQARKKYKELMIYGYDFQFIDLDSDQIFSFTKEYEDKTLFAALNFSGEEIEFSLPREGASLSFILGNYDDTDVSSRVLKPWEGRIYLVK
The assay can be described thus: Commercial glycosidase inhibition: maltase (yeast maltase; α-Glcase1). It counts as biochemical. As to conditions: mean ± SD, three determinations; competitive; n.i. = no inhibition detected at 1 mM. The source says: (§1) We first evaluated the inhibitory properties of the new nonreducing mono- and bicyclic sp^2-iminosugars 4–15 against a panel of commercial glycosidases that included the α-glucosidases maltase (yeast maltase; α-Glcase1) and isomaltase (α-Glcase2) from Saccharomyces cerevisiae and amyloglucosidase (α-Glcase3) from Aspergillus niger, the β-glucosidases from almonds (β-Glcase1) and bovine liver (β-Glcase2), the α-galactosidase from green coffee beans (α-Galase), the β-galactosidase from Escherichia coli (β-Galase), and the α-mannosidase from Jack bean (α-Manase).
Inhibition constant (Ki) values were determined by spectrophotometrically measuring the residual hydrolytic activities of the glycosidases against the respective o- (for β-galactosidase from E. coli) or p-nitrophenyl α- or β-D-glycopyranoside (for other glycosidases) in the presence of the iminosugars. Each assay was performed in phosphate buffer or phosphate-citrate buffer (for α- or β-mannosidase and amyloglucosidase) at the optimal pH for the enzymes. The reactions were initiated by addition of the enzyme to a solution of the substrate in the absence or presence of various inhibitor concentrations. The mixture was incubated for 10–30 min at 37 °C or 55 °C (for amyloglucosidase) and the reaction was quenched by addition of 1 M Na2CO3. Reaction times were appropriate to obtain 10–20% conversion of the substrate in order to achieve linear rates. The absorbance of the resulting mixture was determined at 405 nm. Approximate value of Ki was determined from the slope of Dixon plots using a fixed concentration of substrate (around the Km value for the different glycosidases) and various concentrations of inhibitor. Full Ki determinations and enzyme inhibition mode were determined from the slope of Lineweaver–Burk plots and double reciprocal analysis.

In assay [3] the test system is β-glucosidases (almonds/bovine enzymes). The note with it: 4 compared with its DIJ epimer 7.
Text: as §1
Inhibition constant (Ki) values were determined by spectrophotometrically measuring the residual hydrolytic activities of the glycosidases against the respective o- (for β-galactosidase from E. coli) or p-nitrophenyl α- or β-D-glycopyranoside (for other glycosidases) in the presence of the iminosugars. […] The absorbance of the resulting mixture was determined at 405 nm. Approximate value of Ki was determined from the slope of Dixon plots using a fixed concentration of substrate (around the Km value for the different glycosidases) and various concentrations of inhibitor. Full Ki determinations and enzyme inhibition mode were determined from the slope of Lineweaver–Burk plots and double reciprocal analysis.

For assay [4], the target named is T3, human β-glucocerebrosidase (GCase) (Homo sapiens, UniProt P04062, R534H).
T3 construct: purchased Genzyme (Genzyme Japan, Tokyo, Japan) / Sanofi Genzyme, Cambridge, MA, USA Cerezyme
T3 sequence (P04062 40-536 R534H): T1 sequence (P04062 40-536) with R495H
Nature of the assay: Purified recombinant human GCase inhibition in vitro. The note with it: for Ki: purified recombinant enzyme (Cerezyme), 4-MU glucopyranoside substrate. It counts as biochemical. As to the method:
Comparative assessment of the inhibition abilities of 1–4 against human lysosomal glycosidases in cell lysates (in vitro enzyme assay; see Experimental Section) confirmed the selectivity pattern previously observed for the commercial enzymes: whereas GCase was responsive to μM concentrations of the sp^2-iminosugars, the activity of lysosomal α-glucosidase, α- and β-galactosidases, α- and β-mannosidases, and hexosaminidase was not affected at concentrations of up to 200 μM. The corresponding Ki values were determined at pH 7 and 5 using purified recombinant human GCase and 4-methylumbelliferone (4-MU)-conjugated […] as the substrate (Table 2).
GCase activities were determined as above using purified human GCase, obtained from Genzyme (Genzyme Japan, Tokyo, Japan) in 0.1 M citrate buffer at pH 5 or pH 7 and 4-methylumbelliferone (4-MU)-conjugated β-D-glucopyranoside as the substrate. The reactions were terminated by adding 0.2 mL of 0.2 M glycine sodium hydroxide buffer (pH 10.7). The liberated 4-methylumbelliferone was measured in a black-well plate with a Perkin Elmer Luminescence Spectrometer, Waltham, MA, USA (excitation wavelength: 340 nm; emission: 460 nm).

What is called Ki is the equilibrium dissociation constant of an inhibitor or competing ligand from its target.

Where a chain is given by its changes, count along the chain named. Read-outs that look alike come from different tables or passages of the source.

Consider `CCCCCCCCN=C1SCC2C(O)C(O)C(O)CN12` (stereo not drawn) [Compound 4, 1-Deoxy-6-thio-5-N,6-S-(N′-octyliminomethylidene)nojirimycin], for which, in assay [1], the “GCase activity in lysates of healthy human fibroblasts at higher concentrations” value was “significantly inhibited”. The “GCase activity in lysates of healthy human fibroblasts at 20 μM” value in assay [1] (20 μM, 5 days culture) was “virtually full inhibition”. Further, the “Ki α-Glcase1” value in assay [2] was “n.i. ^1”. Further, the “fold stronger inhibition potency towards the β-glucosidases” value in assay [3] is recorded as 100 fold. In assay [4] (3 vs 1, 4 vs 2), the “fold stronger GCase inhibition of nonreducing vs reducing partner” value is about 20 fold. The “fold enhancement of GCase inhibition potency upon replacement of O-6 by sulfur, pH 5” value in assay [4] (pH 5, 2 vs 1, 4 vs 3) was found to be 107 fold. Besides, the Ki in assay [4] (pH 5, read-out: Ki human GCase, pH 5) was 59 ± 3.5 nM; in assay [4] (pH 7, read-out: Ki human GCase, pH 7) it was 13 ± 1.1 nM. Besides, the “fold enhancement of GCase inhibition potency upon replacement of O-6 by sulfur, pH 7” value in assay [4] (pH 7, 2 vs 1, 4 vs 3) was determined as 130 fold.

For the origin of these results see paper PMC6017062, “Probing the Inhibitor versus Chaperone Properties of sp^2-Iminosugars towards Human β-Glucocerebrosidase: A Picomolar Chaperone for Gaucher Disease” (Molecules : A Journal of Synthetic Chemistry and Natural …, 2018).
